According to patent US6022307A, “Substituted dibenzothiophenes having antiangiogenic activity” (American Cyanamid Company, priority 1999, dated 2000):
Counter-ions that a name gives are not always drawn. Like-named read-outs stand apart in the source and are kept apart here.

Columns and labels:
[1] = system: corneal neovascularization; test: Corneal Neovascularization Model; type: in vivo, mice; settings: 100 mg/kg, PO, days 1-10
Method: Corneal Neovascularization Model
The sustained release preparations of angiogenic agents (ELVAX pellet) were prepared by solvent casting. […] The solvent was then evaporated, leaving the angiogenic agent in the polymeric matrix
Mice were anesthetized using a 1-1.5 ml/kg solution containing a mixture of 70% ketamine hydrochloride (100 mg/ml) and 30% xylazine (20 mg/ml). Using sterile surgical technique, an ELVAX pellet containing either basic FGF (100 ng) or VEGF (400 ng) was implanted into a previously dissected intrastromal corneal pocket 0.5 mm from the corneoscleral limbus. Following implantation the implantation site margins were reapposed and the eyes were treated with topical antibiotic ointment (bacitracin/neomycin/polymixin). On various days (between postoperative days 4 and 18) the extent of neovascularization was measured.
Neovascularization was monitored by measurements of new vessel growth within the previously avascular cornea. This parameter was obtained by measuring with calipers under microscopic magnification the length of the base of the neovascular bed at the limbus. The area of neovascularization,which is typically triangular, was calculated by dividing the product of the length of the vessel and the base length by two. Data was statistically analyzed via Student-t-test of Log Relative Reduction of Neovascularization. A p-value (p≤0.05) indicates a statistically significant reduction in neovascularization of Treated Group, compared to Placebo Control.

KDR [2] = system: KDR
Method: (§1) Inhibition of Binding of VEGF 165 to KDR & Flt-1 Receptors as Measured by SPA Assay
(§2) Preparation of conditioned media containing the KDR-Fc soluble VEGF receptor.:
(§3) Human 293KDR2 cells, which secrete a soluble KDR-Fc fusion protein, were grown in Dulbecco's Modified Eagle Medium supplemented with 10% fetal calf serum, 2 mM glutamine, 10 units/ml penicillin G sulfate, 10 μg/ml streptomycin sulfate and 175 μg/ml geneticin (G418) sulfate. Cells were plated at a density of 10^6 cells/100 mm dish and incubated at 37° C. in a humidified atmosphere containing 95% air and 5% CO2. After 10 days, conditioned medium was collected and centrifuged at 15,000 rpm for 15 min to remove dead cells. A total of 0.1 volume of 1.15% gelatin and 0.02 volume of 1M HEPES buffer (pH 8) was added. Leupeptin and pepstatin A were added to 1 μg/ml each.
(§4) Preparation of ^125 I-labelled VEGF ligand:
(§5) Recombinant human ^125 T-labelled VEGF 165 was purchased from Amersham (3,800 cpm/fmol). ^125,-labelled VEGF was diluted in DMEM supplemented with gelatin (0.15%) and HEPES buffer (20 mM) to a final concentration of 40,000 cpm/25 μl.
Preparation of SPA beads:
(§6) SPA PVT antibody-binding beads were purchased from Amersham. Each bottle of SPA beads (500 mg) was reconstituted in 25 ml of DMEM supplemented with gelatin (0.15%) and HEPES buffer (20 mM). The bottle contents were well mixed (15 min with a stir bar at room temperature).
(§7) SPA assays were performed in flat-bottom polystyrene 96 well microtitre plates.
(a) Pipette 50 μl of SPA beads to well.
(§8) (b) Pipette 25 μl of conditioned medium to well.
(§9) (d) Pipette 25 μl of ^125 J-VEGF 165 to well.
(§10) The appropriate control wells were set up to measure non-specific binding, solvent effect, etc. The assays were run in duplicate or triplicate wells. Plates were sealed and incubate at room temperature without shaking for 5 to 20 hours. Plates were then counted in a Packard TopCount microtitre plate liquid scintillation counter.
(§11) A typical assay gave 3,000 to 6,000 cpm bound. Background binding (measured in the presence of 100-fold molar excess of unlabelled VEGF 165) was typically 200 to 300 cpm bound. Compounds were tested at 30, 10, 3, 1, 0.3 and 0.1 μg/ml in DMSO. […] Half maximal binding was determined by the following equation:
(§12) s=maximal cpm bound in the absence of compound.
(§13) The IC50 values were determined graphically by the following procedure:
(§14) A graph was drawn plotting compound concentration (x-axis) versus cpm bound (y-axis).
(§15) The half maximal binding was calculated using the equation above.
(§16) A horizontal line (LINE A) was drawn which intersects the y-axis at the half maximal binding value.
(§17) A vertical line (LINE B) was drawn through the point where LINE A intersects the inhibition curve.
(§18) The point where LINE B intersects the x-axis was extrapolated from the graph to give the IC50 value.

[3] = system: Human Epidermoid Tumors (A431); type: in vivo, human tumor in BALB/c nu/nu female mice; settings: 100 mg/kg, PO
[4] = system: Human Epidermoid Tumors (A431); type: in vivo, human tumor in BALB/c nu/nu female mice
Method: In Vivo Inhibition of Growth of Human Epidermoid Tumors (A431)
In vivo testing was performed using BALB/c nu/nu female mice (Charles River, Wilmington, Mass.). The human epidermoid carcinoma cells A-431 (American Type Culture Collection, Rockville, Md. # CRL-155) were grown in vitro and 5×10^6 cells were injected subcutaneously (SC) into mice. When tumors attained a mass of between 100 and 150 mg, the mice were randomized into treatment groups (Day Zero). Mice were treated either intraperitoneally (IP) or orally (PO) once a day on days 1 through 20 post staging with doses of either 100 or 50 mg/kg/dose in 0.2% Klucel. Tumor mass was determined every 7 days [(length×width^2)/2] for up to 42 days post staging. Relative tumor growth (mean tumor mass on day 7, 14, 21, 28, 35 and 42 divided by the mean tumor mass on day zero) was determined for each treatment group. The %T/C (Tumor/Control) was determined by dividing the relative tumor growth of the treated group by the relative tumor growth of the placebo group and multiplying by 100. Data was statistically analyzed via Student-t-test of Log Relative Tumor Growth. A p-value (p≤0.05) indicates a statistically significant reduction in Relative Tumor Growth of Treated Group, compared to Placebo Control. A compound is considered to be active if the %T/C is found to be <60% and a p-value of less than or equal to 0.05 is achieved.

[5] = system: VEGF 165-induced vascular permeability; test: Inhibition of Vascular Permeability Assay (Miles Assay); type: in vivo, BALB/c female mice; settings: 100 mg/kg, PO
Method: Inhibition of Vascular Permeability Assay (Miles Assay) This assay was performed using BALB/c female mice (Charles River, Wilmington, Mass.). Both sides of the animals were shaved between 24 and 48 hours before the start of the assay. There were 10 animals per experimental group. […] One half hour later the animals were sacrificed by CO2 inhalation. […] Data was statistically analyzed via Student-t-test. A p-value (p≤0.05) indicates a statistically significant difference between the area of vascular permeability of the vehicle control verses the experimental group. Data was statistically analyzed via Student-t-test of Log Relative Area of Permiability. A p-value (p≤0.05) indicates a statistically significant reduction in permeability of Treated Group, compared to Placebo Control.

KDR [6] = test: Inhibition of Binding of VEGF 165 to KDR Receptor as Measured by SPA Assay; settings: read-out: affinity constant for VEGF binding to the soluble KDR-Fc receptor
Target sequence in this assay (P35968 20-327 limits assumed): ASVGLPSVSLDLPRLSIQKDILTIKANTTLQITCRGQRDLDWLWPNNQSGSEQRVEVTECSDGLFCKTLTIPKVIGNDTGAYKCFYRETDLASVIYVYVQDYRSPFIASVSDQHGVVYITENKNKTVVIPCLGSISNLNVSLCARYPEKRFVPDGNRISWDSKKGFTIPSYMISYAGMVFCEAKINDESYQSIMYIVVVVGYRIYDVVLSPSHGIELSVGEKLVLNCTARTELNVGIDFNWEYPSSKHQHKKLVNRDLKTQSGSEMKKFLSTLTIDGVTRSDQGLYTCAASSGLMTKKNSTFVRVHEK
Method: as §1, §2, §3, §4, §5
Preparation of SPA beads:
as §6, §7
(a) Pipette 50 μl of SPA beads to well.
as §8, §9, §10, §11, §12, §13, §14, §15, §16, §17, §18

Row | Compound | Inhibition of Corneal Neovascularization ([1]; Day 4) [%] | Inhibition of Corneal Neovascularization ([1]; Day 8) [%] | Inhibition of Corneal Neovascularization ([1]; Day 11) [%] | Inhibition of Corneal Neovascularization ([1]; Day 13) [%] | IC50 (KDR [2]) [µg/mL] | % T/C (Day) ([4]; 50 mg/kg, PO, day 28) [%] | also measured
1 | O=C(Nc1cc2sc3cc(NC(=O)c4ccc5c(c4)C(=O)c4ccccc4C5=O)c(C(=O)O)cc3c2cc1C(=O)O)c1ccc2c(c1)C(=O)c1ccccc1C2=O.[Na].[Na] [Example 4, 3,7-Bis{[(9,10-dihydro-9,10-dioxo-2-anthracenyl)carbonyl]-amino}dibenzothiophene-2,8-dicarboxylic acid, disodium] | 55 | 38 | 40 | 23 | 0.2 | – | –
2 | O=C(Nc1cc2sc3cc(NC(=O)c4cc5c(s4)-c4cc(Cl)ccc4SC5)c(C(=O)O)cc3c2cc1C(=O)O)c1cc2c(s1)-c1cc(Cl)ccc1SC2 [Example 6, 3,7-Bis[(8-chloro-4H-thieno[3,2-c][1]benzothiopyran-2-carbonyl)-amino]dibenzothio-phene-2,8-dicarboxylic acid, disodium] | – | – | – | – | 0.5 | – | % T/C (Day) ([3]; day 15): 52%
3 | COc1ccc(/C=C/C(=O)Nc2cc3sc4cc(NC(=O)/C=C/c5ccc(OC)cc5)c(C(=O)O)cc4c3cc2C(=O)O)cc1 [Example 12, 3,7-Bis{[3-(4-methoxyphenyl)acryloylamino]-dibenzothiophene-2,8-dicarboxylic Acid, disodium salt] | 41 | 41 | 34 | 8 | 4.9 | – | –
4 | CCOP(=O)(O)c1cc2c(cc1NC(=O)/C=C/c1ccc(OC)cc1)S(=O)(=O)c1cc(NC(=O)/C=C/c3ccc(OC)cc3)c(P(=O)(O)OCC)cc1-2 [Example 20, [3,7-Bis-[4-methoxyphenyl]-acryloylamino]-8-(ethoxyhydroxy-phosphoryl)-5,5-dioxo-5H-5^6-dibenzothiophen-2-yl]-phosphonic acid monoethyl ester, disodium salt] | 29 | 25 | 30 | 26 | 3.9 | – | S/T (No. Survivors/No. Treated) ([4]; 100 mg/kg, PO, Day +28 post tumor staging): 5/5; % T/C (Day) ([3]; day 29): 39%
5 | CCOP(=O)(O)c1cc2c(cc1NC(=O)c1cc3ccccc3s1)S(=O)(=O)c1cc(NC(=O)c3cc4ccccc4s3)c(P(=O)(O)OCC)cc1-2 [Example 23a, [3,7-Bis[(benzo[b]thiophene-2-carbonyl)amino-8-(ethoxyhydroxyphosphoryl)-5,5-dioxo-5H-5λ^6-dibenzothiophen-2-yl]phosphonic acid monoethyl ester, disodium salt] | 70 | 55 | 46 | 50 | 1.65 | – | –
6 | COc1ccc(/C=C/C(=O)Nc2cc3c(cc2S(=O)(=O)O)-c2cc(S(=O)(=O)O)c(NC(=O)/C=C/c4ccc(OC)c(OC)c4Cl)cc2S3(=O)=O)c(Cl)c1OC [Example 27, 3,7-Bis[3-(2-chloro-3,4-di-methoxyphenyl)-acryloylamino]-5,5-dioxo-5H-5^6-dibenzothiophene-2,8-disulfonic acid, disodium salt] | – | – | – | – | 2.33 | 51 | % T/C (Day) ([4]; 100 mg/kg, PO, day 28): 30%; % Control ([5]; 4 hr prior to VEGF): 73%; Lesion Area (measured area of vascular permeability) ([5]; 4 hr prior to VEGF): 58.5 mm^2
7 | COc1ccc(/C=C/C(=O)Nc2cc3c(cc2S(=O)(=O)O)-c2cc(S(=O)(=O)O)c(NC(=O)/C=C/c4ccc(OC)cc4)cc2S3(=O)=O)cc1 [Example 30, 3,7-Bis-[3-(4-methoxyphenyl)-acryloylamino]-5,5-dioxo-5H-5^6-dibenzothiophene-2,8-disulfonic acid, disodium salt] | – | – | – | – | 0.5 | 58 | % T/C (Day) ([4]; 100 mg/kg, PO, day 42): 56%; % Control ([5]; 4 hr prior to VEGF): 56%; Lesion Area (measured area of vascular permeability) ([5]; 4 hr prior to VEGF): 52.9 mm^2
8 | CCCc1c(C(=O)Nc2cc3c(cc2S(=O)(=O)O)-c2cc(S(=O)(=O)O)c(NC(=O)c4cnn(-c5ccc(Cl)cc5)c4CCC)cc2S3(=O)=O)cnn1-c1ccc(Cl)cc1 [Example 45, 3,7-Bis-{[1-(4-chlorophenyl)-5-propyl-1H-pyrazole-4-carbonyl]amino}5,5-dioxo-5H-5^6-dibenzothiophene-2,8-disulfonic acid, disodium salt] | – | – | – | – | 2 | – | % T/C (Day) ([4]; 50 mg/kg, IP, day 28): 50%
9 | O=C(Nc1cc2c(cc1S(=O)(=O)O)-c1cc(S(=O)(=O)O)c(NC(=O)c3ccc4cc5ccccc5cc4c3)cc1S2(=O)=O)c1ccc2cc3ccccc3cc2c1 [Example 54, 3,7-Bis-(anthracen-2-ylcarbonylamino)-5,5-dioxo-5H-5^6-dibenzothiophene-2,8-disulfonic acid, disodium salt] | – | – | – | – | 0.15 | 38 | % T/C (Day) ([4]; 50 mg/kg, IP, day 28): 46%
10 | O=C(Nc1cc2c(cc1S(=O)(=O)O)-c1cc(S(=O)(=O)O)c(NC(=O)c3ccc4c(c3)C(=O)c3ccccc3C4=O)cc1S2(=O)=O)c1ccc2c(c1)C(=O)c1ccccc1C2=O [Example 55, 3,7-Bis-[9,10-dihydro-9,10-dioxoanthracen-2-yl)carbonyl-amino]-5,5-dioxo-5H-5^6-dibenzothiophene-2,8-disulfonic acid, disodium salt] | – | – | – | – | 1 | 44 | % Control ([5]; 1 hr prior to VEGF): 77%; Lesion Area (measured area of vascular permeability) ([5]; 1 hr prior to VEGF): 71.6 mm^2; % Control ([5]; 4 hr prior to VEGF): 74%; Lesion Area (measured area of vascular permeability) ([5]; 4 hr prior to VEGF): 70.5 mm^2
11 | VEGF | – | – | – | – | – | – | Kd (KDR [6]): ~0.1 nM
